Key:
Format in all cases: cell-based, human
[1] = tested on: iCasp9-transduced, CD19-selected allodepleted T cells; assay: Induction of apoptosis with AP20187 in gene-modified allodepleted T cells (annexin V/7-AAD)
Experimental: Suicide gene functionality was assessed by adding a small molecule synthetic homodimerizer, AP20187 (Ariad Pharmaceuticals; Cambridge, Mass.), at 10 nM final concentration the day following CD19 immunomagnetic selection. Cells were stained with annexin V and 7-amino-actinomycin (7-AAD)(BD Pharmingen) at 24 hours and analyzed by flow cytometry. Cells negative for both annexin V and 7-AAD were considered viable, cells that were annexin V positive were apoptotic, and cells that were both annexin V and 7-AAD positive were necrotic. The percentage killing induced by dimerization was corrected for baseline viability as follows: Percentage killing=100%−(% Viability in AP20187-treated cells÷% Viability in nontreated cells).
Cells were maintained in T cell medium containing 50 U/ml IL-2 until 22 days after transduction. A portion of cells was reactivated on 24-well plates coated with […] OKT3 and 1 µg/ml anti-CD28 (Clone CD28.2, BD Pharmingen, San Jose, Calif.) for 48 to 72 hours. CD19 expression and suicide gene function in both reactivated and non-reactivated cells were measured on day 24 or 25 post transduction.
The day following immunomagnetic selection, 10 nM of the chemical inducer of dimerization, AP20187, was added to induce apoptosis, which appeared within 24 hours. […] Killing efficiency after correction for baseline viability was about 92.9%±3.8%. Large-scale CD19 selection produced cells that were killed with similar efficiency as small-scale selection: mean viability with and without AP20187, and percentage killing, in large and small scale were about 3.9%, about 84.0%, about 95.4% (n=3) and about 6.6%, about 79.3%, about 91.4% (n=5) respectively. AP20187 was non-toxic to non-transduced cells: viability with and without AP20187 was about 86%±9% and 87%±8% respectively (n=6).
To assess the stability of transgene expression and function, cells were maintained in T cell culture medium and low dose IL-2 (50 U/ml) until 24 days after transduction. A portion of cells was then reactivated with OKT3/anti-CD28. CD19 expression was analyzed by flow cytometry 48 to 72 hours later, and suicide gene function was assessed by treatment with 10 nM AP20187. The obtained are for cells from day 5 post transduction (ie, 1 day after CD 19 selection) and day 24 post transduction, with or without 48-72 hours of reactivation (5 experiments). In 2 experiments, CD25 selection was performed after OKT3/αCD28 activation to further enrich activated cells. Error bars represent standard deviation. * indicates p<0.05 when compared to cells from day 5 post transduction. By day 24, surface CD19 expression fell from about 98%±1% to about 88%±4% (p<0.05) with a parallel decrease in mean fluorescence intensity (MFI) from 793±128 to 478±107 (p<0.05) (see FIG. 13B). Similarly, there was a significant reduction in suicide gene function: residual viability was 19.6±5.6% following treatment with AP20187; after correction for baseline viability of 54.8±20.9%, this equated to killing efficiency of only 63.1±6.2%.

[2] = tested on: iCasp9-transduced MSCs; assay: Apoptosis studies in vitro in iCasp9-ΔCD19 transduced MSCs
Experimental: Undifferentiated MSCs. The chemical inducer of dimerization (CID) (AP20187; ARIAD Pharmaceuticals, Cambridge, Mass.) was added at 50 nM to iCasp9-transduced MSCs cultures in complete medium. Apoptosis was evaluated 24 hours later by FACS analysis, after cell harvest and staining with annexin V-PE and 7-AAD in annexin V binding buffer (BD Biosciences, San Diego, Calif.). Control iCasp9-transduced MSCs were maintained in culture without exposure to CID.
Differentiated MSCs. Transduced MSCs were differentiated as presented above. At the end of the differentiation period, CID was added to the differentiation media at 50 nM. Cells were stained appropriately for the tissue being studied, as presented above, and a contrast stain (methylene azure or methylene blue) was used to evaluate the nuclear and cytoplasmic morphology. In parallel, tissues were processed for terminal deoxynucleotidyl-transferase dUTP nick end labeling (TUNEL) assay as per manufacturer instructions (In Situ Cell Death Detection Kit, Roche Diagnostics, Mannheim, Germany). For each time point, four random fields were photographed at a final magnification of 40× and the images were analyzed with ImageJ software version 1.430 (NIH, Bethesda, Md.). Cell density was calculated as the number of nuclei (DAPI positivity) per unit of surface area (in mm^2). The percentage of apoptotic cells was determined as the ratio of the number of nuclei with positive TUNEL signal (FITC positivity) to the total number of nuclei. Controls were maintained in culture without CID.

[3] = tested on: transduced T cells; assay: T cell caspase assay (IncuCyte, caspase 3/7 green reagent)
Experimental: To enable detection of apoptosis using the IncuCyte instrument, 2 μM of IncuCyte™ Kinetic Caspase-3/7 Apoptosis reagent (Essen Bioscience, 4440) were add to each well to reach a total volume of 200 μl. The plates were centrifuged for 5 min at 400×g and placed inside the IncuCyte (Dual Color Model 4459) to monitor green fluorescence every 2-3 hours for a total of 48 hours at 10× objective. Image analysis was performed using the “Tcells_caspreagent_phase_green_10×_MLD” processing definition. The “Total Green Object Integrated Intensity” metric is used to quantify caspase activation. Each condition was performed in duplicates and each well was imaged at 4 different locations.
To enable detection of apoptosis using the IncuCyte instrument, 2 μM of IncuCyte™ Kinetic Caspase-3/7 Apoptosis reagent (Essen Bioscience, 4440) was added to each well to reach a total volume of 200 μl. The plates were centrifuged for 5 min at 400×g and placed inside the IncuCyte (Dual Color Model 4459) to monitor green fluorescence every 2-3 hours for a total of 48 hours at 10× objective. Image analysis was performed using the “Tcells_caspreagent_phase_green_10×_MLD” processing definition. The “Total Green Object Integrated Intensity” metric and the “Phase Object Confluence (Percent)” were used to quantify caspase activation. Each condition was performed in duplicate and each well was imaged at 4 different locations.

[4] = 10 nM AP20187, day after CD19 selection
[5] = day 24 post transduction, non-reactivated
[6] = large-scale CD19 selection (n=3)
[7] = small-scale CD19 selection (n=5)

| Compound | killing efficiency after correction for baseline viability [1, 4] | viable cells (annexin V and 7-AAD negative) at 24 hours [1, 4] | killing ([1]; CD25 negative fraction after reactivation) [%] | killing efficiency ([1]; OKT3/αCD28-reactivated cells, day 24 or 25) | killing efficiency ([1]; day 5 post transduction) [%] | killing efficiency [1, 5] [%] | residual viability following AP20187 [1, 5] [%] | apoptosis after treatment with dimerizer ([1]; iCasp9-modified donor T cells) [%] | mean viability with AP20187 [1, 6] | percentage killing [1, 6] | mean viability with AP20187 [1, 7] | percentage killing [1, 7] | apoptosis index of iCasp9-negative cells ([2]; CID 50 nM) [%] | apoptotic death of iCasp9-positive cells within 24 hrs ([2]; CID 50 nM) [%] | annexin positive, negative population (iCasp neg/CID) ([2]; CID 50 nM, 24 hours, FACS) [%] | annexin positive, non-transduced control MSC (Control/CID) ([2]; CID 50 nM, 24 hours, FACS) [%] | cell density after 24 hours ([2]; adipocytic differentiated iCasp9-positive cells, 50 nM CID, from 584) [cells/mm^2] | apoptotic cells among magnetically immunoselected iCasp9-CD19-positive cells ([2]; after exposure to CID) | dimerization/activation of FKBP.FRB.Δcasp9 (iRC9) ([3]; 20 nM rimiducid) | concentration at which iC9 was observed to be activated ([3]; MC-Rap + CAR + iC9 constructs) [µM] |
| --- | --- | --- | --- | --- | --- | --- | --- | --- | --- | --- | --- | --- | --- | --- | --- | --- | --- | --- | --- | --- |
| CC[C@H](C(=O)N1CCCC[C@H]1C(=O)O[C@H](CCc1ccc(OC)c(OC)c1)c1cccc(OCC(=O)NCC(CNC(=O)COc2cccc([C@@H](CCc3ccc(OC)c(OC)c3)OC(=O)[C@@H]3CCCCN3C(=O)[C@@H](CC)c3cc(OC)c(OC)c(OC)c3)c2)CN(C)C)c1)c1cc(OC)c(OC)c(OC)c1 [AP20187] | about 92.9%±3.8 | about 5.5%±2.5 | 78.6±9.1 | ~84.6%±8.0 | 93.1±3.5 | 63.1±6.2 | 19.6±5.6 | > 90 | about 3.9% | about 95.4% | about 6.6% | about 91.4% | 20±7 | 93±1 | 19 | 15 | < 14 | More than 95% |  |  |
| CC[C@H](C(=O)N1CCCC[C@H]1C(=O)O[C@H](CCc1ccc(OC)c(OC)c1)c1cccc(OCC(=O)NCCNC(=O)COc2cccc([C@@H](CCc3ccc(OC)c(OC)c3)OC(=O)[C@@H]3CCCCN3C(=O)[C@@H](CC)c3cc(OC)c(OC)c(OC)c3)c2)c1)c1cc(OC)c(OC)c(OC)c1 [rimiducid] |  |  |  |  |  |  |  |  |  |  |  |  |  |  |  |  |  |  | unable to induce dimerization | < 100 |

From patent US20230065562A1, “DUAL CONTROLS FOR THERAPEUTIC CELL ACTIVATION OR ELIMINATION” (Bellicum Pharmaceuticals, Inc., priority 2015, published 2023)
